These results are taken from patent publication US20110152379A1, “COMPOSITION FOR CONTROL OF AGING AND/OR EXTENSION OF LIFE, CONTAINING DAPSONE AS ACTIVE INGREDIENT” (priority 2008, published 2011).

Data set [1] concerns cytosolic superoxide anion. The data set can be described thus: Superoxide anion in cell (cytoplasm), DHE. The class given is cell-based. To be noted: human diploid fibroblast; 1 mM PQ 30 minutes; FIG. 24A. Here is the method:
(§1) The cell was treated with 1 mM of PQ for 30 minutes, and then was cultured at 37° C. for 15 minutes after adding oxidant-sensitive fluorescent dyes (A) DHE (5 uM, cytosol specific) and (B) MitoSOX (5 uM, mitochondria specific), respectively. For identifying the change of fluorescence, the excitation and emission wavelength of DHE were measured at 515 and 590 nm and MitoSOX was measured at 520 and 580 nm by using a multiwell plate reader. The results were indicated by calculating the results of three experiments as a control rate (%). The statistical significant was expressed as *, # p<0.005; ** p<0.05.
The cell was twice washed with DPBS and Ethidium-DNA that fluoresces was immediately measured at excitation wavelength 515 nm and emission wavelength 590 nm by using Cary Eclipse fluorescence spectrophotometer (Varian, Calif., USA) machine.

In data set [2] the test system is mitochondria superoxide anion. The data set can be described thus: Superoxide anion in mitochondria, MitoSOX Red. The class given is cell-based. Particulars: human diploid fibroblast; 1 mM PQ 30 minutes; FIG. 24B. Here is the method:
as §1
Mitochondria superoxide anion was measured by using the fluorescence material, i.e., MitoSOX Red. […] The cell was twice washed with DPBS and the fluorescence was immediately measured at excitation wavelength 515 nm and emission wavelength 590 nm by using CEFS [Cary Eclipse fluorescence spectrophotometer (Varian, Calif., USA)] machine.

Data set [3] concerns mitochondria. The data set can be described thus: Mitochondria structure staining with MitoTracker Red. The class given is cell-based, human. Particulars: pretreated with DDS or DPI, then 1 mM PQ 24 hours; FIG. 30. The protocol:
The first photograph indicates the stained mitochondria of the non-treated human diploid fibroblast as a control, the second photograph indicates the stained mitochondria of the PQ-treated human diploid fibroblast, the third photograph indicates the stained mitochondria of the human diploid fibroblast that was pretreated with DDS and then was treated with PQ, and the final photograph indicates the stained mitochondria of the human diploid fibroblast that was treated with DPI and PQ together (by using Confocal process). The values of (A, B, C and D: ×4000) is means±SEM (n=3), # is p<0.005 relative CC; and * is p<0.005 relative C.
The human diploid fibroblasts were cultured at 24-well plate. After the above experiment materials, i.e., the human diploid fibroblasts, were pretreated and then were treated with PQ for 24 hours, the above cells were treated with MitoTracker Red CMXRos (50 nM), which is a staining material for mitochondria, at 37° C. for 30 minutes. The dye is a marker of function for marking mitochondria through marking a transmembrane potential of mitochondria in a cell. After culturing, the cells were washed with PBS and then fixed with 4% of paraformaldehyde at 4° C. for overnight. […] After washing, the cells were covered with a cover glass and visualized through a fluorescence microscope.

Data set [4] deals with membrane potential of mitochondria. The data set can be described thus: Membrane potential of mitochondria, DiOC6 assay. In kind it is cell-based, human. The protocol: The protein amount of mitochondria constituent complex was measured by using Western Blot using Complex I (20 kDa ND6 subunit), Complex II (30 kDa FeS, non-heme iron protein, SDHB), Complex III (47 kDa core protein 2), Complex IV (18 kDa subunit IV), Complex V (55 kDa subunit a ATP synthase), and the like. […] The membrane potential (Δψm) of mitochondria used DiOC6. […] Since then, the above fibroblast was treated with 40 nM of DiOC6 for 15 minutes. The results were measured by using Cary Eclipse Fluorescence Spectrophotometer (Varian, Calif., USA) and the excitation wavelength and emission wavelength were measured at 480 nm and 520 nm, respectively.
The change of membrane potential (Δψm) of mitochondria was measured by using a cationic dye, DiOC6 that is a specific fluorescent material for mitochondria. An aspect of the change was measured by using Fluorescence Spectrophotometer. The cell was cultured in 40 nM DiQC6 for 15 minutes and then the fluorescent material that was left was removed by using PBS. The analysis was performed by using Cary Eclipse fluorescence spectrophotometer (Varian, Calif., USA), and then the excitation wavelength was measured at 480 nm, and the emission wavelength was measured at 520 nm.

In data set [5] the test system is Escherichia coli OP50. The data set can be described thus: Growth of OP50 bacteria with PABA and DDS. The class given is cell-based. Particulars: PABA 10 uM added with DDS; FIG. 1. Here is the method:
FIG. 1 is a graph showing the growth degree of bacteria by treating with PABA. […] In order to identify the effect of dapsone on the extending of lifespan, the experiment was performed in the following order. At this time, since dapsone is not a water-soluble material, E. coli was cultured in the medium including dapsone and then was used as a feed for C. elegans. […] The administration of dapsone was started after L4 stage that almost finishes the generation, and the experiment was performed as follows under the condition of 20° C. in order to provide the optimal growth environment: […]

The subject of data set [6] is human diploid fibroblast. The data set can be described thus: Survival rate of human diploid fibroblast treated with PQ (CCK-8). To be noted: 1 mM PQ for 48 hours without any pretreatments. Here is the method:
The above cell was cultured by adding Cell Counting Kit-8 for 48 hours and then the survival ability of cell was measured. In addition, DPI (5 uM) was pretreated for 30 minutes and NAC (2 mM) was pretreated for 3 hours, and then 1 mM of PQ was treated as a positive control.
The evaluation of survival rate of cell was performed by using Counting Kit (CCK-8) from Dojindo Laboratory Company (Japan). The human diploid fibroblast was cultured at 96-well plate for 24 hours before treating. […] The absorbance was measured at 450 nm.

A short description of data set [7]: DPPH radical scavenging activity in cell-free system. To be noted: 0.1-100 uM; 200 uM DPPH; FIG. 25A. In kind it is biochemical. Here is the method:
The radical scavenging activity was measured as the reducing power of
DPPH included in methanol. […] DPPH is a stable free radical, has a thick purple color, and its absorbance is at 517 nm. However, if it reacts with an antioxidant, it has a pale yellow color. The reaction mixture was maintained for 30 minutes at a room temperature without light and then the absorbance was measured at 517 nm. The free radical scavenging activity was calculated as the suppression rate by using the following equation:
% suppression=[(Absorbance of Control−Absorbance of Sample)/Control Absorbance]×100.

Regarding `c1ccc2c(c1)[I+]c1ccccc1-2` [DPI], the “superoxide anion of cytoplasm produced by PQ (DHE assay)” value in data set [1] is given as “suppressed”. Moreover, the “production of superoxide anion in the mitochondria” value in data set [2] is listed as “suppress”. Further, the “shape of mitochondria after PQ (MitoTracker)” value in data set [3] is “recovered, partially”. Further, the “decrease of membrane potential induced by PQ” value in data set [4] (pretreated with DDS (3 hours) or DPI (30 minutes), then 1 mM PQ 24 hours, FIG. 29B) is on record as “meaningfully maintained”.

Turning to `CC(=O)N[C@@H](CS)C(=O)O` [NAC, N-acetyl-L-cystein], the “superoxide anion of cytoplasm produced by PQ (DHE assay)” value in data set [1] was “suppressed”. Also, in data set [2], the “production of superoxide anion in the mitochondria” value is “suppress”.

As to `Nc1ccc(C(=O)O)cc1` [PABA, para-aminobenzoic acid], the “growth rate of bacteria relative to control” value in data set [5] came to 80%.

For `C[n+]1ccc(-c2cc[n+](C)cc2)cc1` [PQ, paraquat], the “membrane potential of mitochondria compared with the control” value in data set [4] (human diploid fibroblast, 1 mM PQ for 24 hours) came to 76.8%. In addition, in data set [6], the “viability of human diploid fibroblast compared with the non-treated control” value is “about 58.8%”.

`Cc1c(C)c2c(c(C)c1O)CCC(C)(C(=O)O)O2` (stereo not shown) [Trolox]: in data set [7], the “activity of removing ROS on DPPH in the test tube” value is given as “strong activity of removing ROS”.
